According to PMC8151276, “An Integrated Approach toward NanoBRET Tracers for Analysis of GPCR Ligand Engagement” (Molecules, 2021):

Key:
[1] = target: T1, SMO (Homo sapiens, UniProt Q99835); experiment: NanoBRET screen HiBiT-SMO in HEK293; type: binding; conditions: SMO
T1 construct: purchased Promega (in-house HiBiT-GPCR construct library, NanoBRET)
Protocol: (§1) Each tracer candidate was screened across the entire library of HiBiT-GPCR constructs using NanoBRET as the detection modality. As depicted in Figure 4A, the specificity of interactions was evaluated through decrease in BRET due to competitive displacement of a bound tracer by excess parental compound. Each tracer was analyzed for binding to each HiBiT-GPCR fusion in the absence and in the presence of competing parental compound. Briefly, HEK293 cells were transfected with HiBiT-GPCR constructs diluted into promoterless DNA to reduce expression and maximize translocation to the cell surface. Each tracer candidate was then screened at concentrations of 1 μM and 0.1 μM across cells expressing these fusions. Cells were treated for 1.5 h with tracer either alone or in the presence of 20 μM competing parental compound (i.e., control). BRET was measured upon addition of purified LgBiT and subsequent complementation with HiBiT genetically fused to a GPCR. The specificity of interactions was assessed through a decrease in BRET signal due to competitive displacement of the bound tracer. To further gauge the robustness of these interactions, the fold response over the control (i.e., BRETtracer/BRETcontrol) was calculated. We chose a 1.5-fold response, which translates to ≥7-fold signal over noise as the minimal threshold required to score an interaction as positive. […]. Below we highlight the screening results obtained for our exemplary fluorescent tracers based on Clozapine, Amitriptyline and AZD1283.
(§2) HiBiT-GPCR DNA constructs were diluted in 10 mM Tris pH 8 to a final concentration of 0.01 μg/μL, arrayed in 96-well plates and stored at −20 °C. For transfection, HEK293 cells were suspended in Opti-MEM (without phenol red) supplemented with 2% fetal bovine serum (Seradigm) and 100 units/mL penicillin–streptomycin (Gibco) at a final concentration of 220,000 cells/mL and dispensed into white 96-well plates at 90 μL/well. Subsequent transfections and screens were carried using an Agilent Bravo Automated Liquid Handling Platform. First, the 96-well HiBiT DNA arrays were diluted 25-fold in Opti-MEM (without serum or phenol red) to a final concentration of 0.0004 μg/μL and 20 μL of the diluted DNAs were transferred into new 96-well plates. Next, promoterless carrier DNA (1 μg/μL) was diluted 25-fold (0.04 μg/μL) and then dispensed into the diluted arrays at 20 μL/well. Following brief mixing, Viafect transfection reagent (Promega) diluted 16-fold into Opti-MEM was dispensed into the plates at 40 μL/well. After mixing by pipetting, plates were incubated for 10 min on the pipetting station deck. The DNA-transfection reagent complexes were then added to plates containing cells. To facilitate the screen, 10 μL of DNA-transfection reagent complexes were added in duplicates to the top 4 and bottom 4 rows, resulting in two identical 48-well arrays per plate. Plates with transfected cells were incubated for 18–20 h at 37 °C/5% CO2. A screen of each tracer across the entire library using two different concentrations requires duplicate plates of transfected cells. Depending on the number of tracers being screened, transfections can be scaled up using the same ratios. The next day, for each tracer, four 20× screening solutions in tracer dilution buffer (Promega) were prepared: two duplicates at final concentration of 20 μM and two duplicates at a final concentration of 2 μM. A competing unmodified compound was added to one of each duplicate at a final concentration of 400 μM. The four resulting solutions were diluted 4-fold in Opti-MEM without serum or phenol red to generate 5× solutions (5 µM and 0.5 µM tracer +/− 100 μM competing compound). To screen the library, a BioTek MultiFlo FX liquid dispenser was used to dispense 22.5 µL of tracer solution to the top 4 rows and 22.5 µL tracer + competing compound solution to the 4 bottom rows. Plates were briefly mixed on an orbital shaker and incubated for 1.5 h at room temperature. […]

[2] = target: T2, F2RL1 (Homo sapiens, UniProt P55085); experiment: NanoBRET screen HiBiT-F2RL1 in HEK293; type: binding; conditions: F2RL1
T2 construct: purchased Promega (in-house HiBiT-GPCR construct library, NanoBRET)
T2 sequence (P55085 26-397): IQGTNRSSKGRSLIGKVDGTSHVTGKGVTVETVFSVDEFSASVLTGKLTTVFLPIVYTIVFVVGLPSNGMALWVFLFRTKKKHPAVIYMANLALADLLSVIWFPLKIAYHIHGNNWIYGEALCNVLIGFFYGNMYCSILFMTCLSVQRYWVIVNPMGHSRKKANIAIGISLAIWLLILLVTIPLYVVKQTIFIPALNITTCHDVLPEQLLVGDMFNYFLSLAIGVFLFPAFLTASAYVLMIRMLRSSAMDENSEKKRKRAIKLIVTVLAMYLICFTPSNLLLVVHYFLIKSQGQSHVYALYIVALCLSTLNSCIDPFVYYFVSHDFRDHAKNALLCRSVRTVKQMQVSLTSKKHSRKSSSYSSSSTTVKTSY
Protocol: as §1, §2

T1 sequence (Q99835 28-787): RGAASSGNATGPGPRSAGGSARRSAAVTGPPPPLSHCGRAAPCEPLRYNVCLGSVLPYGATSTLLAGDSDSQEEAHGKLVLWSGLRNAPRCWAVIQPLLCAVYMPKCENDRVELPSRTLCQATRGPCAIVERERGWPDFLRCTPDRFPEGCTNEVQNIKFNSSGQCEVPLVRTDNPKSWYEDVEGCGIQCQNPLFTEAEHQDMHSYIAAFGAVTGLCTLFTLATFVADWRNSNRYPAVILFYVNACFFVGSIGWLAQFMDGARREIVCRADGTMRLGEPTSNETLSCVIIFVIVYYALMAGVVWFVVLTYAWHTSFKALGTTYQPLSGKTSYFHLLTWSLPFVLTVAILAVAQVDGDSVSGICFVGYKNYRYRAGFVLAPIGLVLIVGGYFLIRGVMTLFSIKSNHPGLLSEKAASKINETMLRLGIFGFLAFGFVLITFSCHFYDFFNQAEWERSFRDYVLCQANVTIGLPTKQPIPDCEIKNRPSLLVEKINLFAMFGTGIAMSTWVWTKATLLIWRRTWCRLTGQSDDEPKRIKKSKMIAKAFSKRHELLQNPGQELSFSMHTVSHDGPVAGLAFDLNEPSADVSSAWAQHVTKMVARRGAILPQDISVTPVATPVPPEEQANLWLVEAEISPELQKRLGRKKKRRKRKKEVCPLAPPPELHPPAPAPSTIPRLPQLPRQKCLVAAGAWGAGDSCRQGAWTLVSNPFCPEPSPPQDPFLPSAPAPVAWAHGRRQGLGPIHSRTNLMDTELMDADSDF

Row | Structure (SMILES) | NanoBRET Fold Response ([1]; tracer 0.1μM) | NanoBRET Fold Response ([1]; tracer 1μM) | NanoBRET Fold Response ([2]; tracer 0.1μM) | NanoBRET Fold Response ([2]; tracer 1μM) | NanoBRET Fold Response ([1]; 0.1μM) | NanoBRET Fold Response ([1]; 1μM) | NanoBRET Fold Response ([2]; 0.1μM) | NanoBRET Fold Response ([2]; 1μM)
1 | O=C(CCOCCOCCOCCOCCNC(=O)CCc1ccc2n1[B-](F)(F)[N+]1=C(c3ccc[nH]3)C=CC1=C2)NCCCN1CCN(C2=Nc3ccccc3Oc3ccc(Cl)cc32)CC1 [Loxapine-a-2-NB590] | 0.98 | 1.15 | 1.12 | 1.14 | – | – | – | –
2 | CCCn1c(=O)c2[nH]c(-c3ccc(OCC(=O)NCCNC(=O)CCOCCNC(=O)c4ccc(CNC(=O)CCc5ccc6n5[B-](F)(F)[N+]5=C(c7ccc[nH]7)C=CC5=C6)cc4)cc3)nc2n(CCC)c1=O [XAC-3-NB590] | 1.01 | 1.05 | 1.04 | 0.97 | – | – | – | –
3 | CCOC(=O)c1cc(C#N)c(N2CCC(C(=O)NS(=O)(=O)Cc3ccccc3/C=C/C(=O)NCCNC(=O)CCc3ccc4n3[B-](F)(F)[N+]3=C(c5ccc[nH]5)C=CC3=C4)CC2)nc1C [AZD1283-1-NB590] | – | – | – | – | 1.05 | 1.13 | 1.06 | 1.06
